As usually defined, the EC50 is the midpoint of the concentration-response curve. Low values mean a more potent agent, high ones a less potent agent. What is called IC50 is the concentration at which inhibition is half-maximal. A lower IC50 goes with higher potency. The ED50 is the midpoint of the dose-response relation. Lower therefore signals an effect at a small dose.

The species named for one assay is Rattus norvegicus. Description: tissue or blood.
The target of assay [1] is Glutamate receptor ionotropic, AMPA (Rattus norvegicus, UniProt P19490+P19491+P19492+P19493).
Description: In vitro binding affinity for Ionotropic glutamate receptor AMPA site was determined using [3H]AMPA as radioligand in rat cortex
The subject of a further assay is Mus musculus. Description: In vivo convulsant potency after subcutaneous administration in mice. The assay is classed as functional. Conditions: sc.

Description for Rattus norvegicus: Effective concentration evaluated in electrophysiological rat cortical slice model

Regarding `CC(C)(C)c1onc(O)c1CC(N)C(=O)O` (configuration not stated), the EC50 in the assay filed under Rattus norvegicus was 34 µM.

`CC(C)(C)c1snc(O)c1CC(N)C(=O)O` (configuration not stated) registered a half-inhibitory concentration (IC50) in assay [1] of 0.63 µM. Further, in the assay filed under Rattus norvegicus, the EC50 was found to be 14 µM.

In assay [1], `NC(Cc1snc(O)c1Br)C(=O)O` (configuration not stated) came in with an IC50 of 17 µM. Moreover, in the assay filed under Rattus norvegicus, the concentration giving a half-maximal response (EC50) turned out to be 500 µM.

With `NC(Cc1cc(O)ns1)C(=O)O` (configuration not stated), the IC50 in assay [1] is 5.8 µM. The compound further gave a 50% effective concentration (EC50) in the assay filed under Rattus norvegicus of 370 µM.

`Cc1snc(O)c1CC(N)C(=O)O` (configuration not stated) showed a median effective dose (ED50) with Mus musculus of 130 µmol/kg. For the same compound, the half-maximal inhibitory concentration (IC50) in assay [1] amounted to 1.8 µM. In addition, in the assay listed under Rattus norvegicus, the concentration for a half-maximal effect (EC50) is 15 µM.

`NC(Cc1cc(O)no1)C(=O)O` (configuration not stated) yielded an IC50 in assay [1] of 1.5 µM. In the assay filed under Rattus norvegicus, it took 370 µM to reach a half-maximal effect (EC50).
